melting point: 229 °C
SMILES: COc1ccc(CNc2nc(CCC(=O)O)nc3sc4c(c23)CCCC4)cc1Cl [Example 2, 3-[4-(3-chloro-4-methoxybenzylamino)-5,6,7,8-tetrahydro-[1]-benzothieno-[2,3-d]-pyrimidin-2-yl]propionic acid]

— patent US20040072846A1, “Pharmaceutical formulation containing thienopyrimidines and antithrombotics, calcium antagonists, prostaglandins or prostaglandin derivatives” (priority 2000, published 2004)
